Test results taken from article PMC9885526 (ACS Central Science, 2023).

What was measured:
SARS-CoV-2 3CLpro = SARS-CoV-2 3CLpro (Severe acute respiratory syndrome coronavirus 2, UniProt P0DTD1); assay: biochemical
SARS-CoV-2 [1] = details: cited from earlier work
in vitro = details: human
[2] = system: SARS-CoV-2 (wild-type strain); assay: microbe, parasite or virus in culture; type: cell-based; details: Severe acute respiratory syndrome coronavirus 2, 48 h
[3] = system: SARS-CoV-2 (wild-type strain); assay: microbe, parasite or virus in culture; type: cell-based; details: Severe acute respiratory syndrome coronavirus 2, Calu-3
SARS-CoV-2 [4] = system: SARS-CoV-2; parameters: species or system K18-hACE2 transgenic mice; details: mouse, in vivo, po, 300 mg/kg
[5] = system: SARS-CoV-2 (wild-type strain); assay: microbe, parasite or virus in culture; type: cell-based; details: Severe acute respiratory syndrome coronavirus 2
SARS-CoV 3CLpro = SARS-CoV 3CLpro (Severe acute respiratory syndrome coronavirus, UniProt P0C6X7); type: biochemical

## CNC(=O)c1cc(Br)cc([N+](=O)[O-])c1N[C@@H]1CCCC[C@@H]1NC(=O)c1cncc2cc(O)ccc12 [WU-09]
SARS-CoV-2 3CLpro
  IC50: 221 ± 35 nM

## CNC(=O)c1cc(Br)cc(C(F)(F)F)c1N[C@@H]1CCCC[C@@H]1NC(=O)c1cncc2ccccc12 [WU-07]
SARS-CoV-2 3CLpro
  IC50: 239 ± 16 nM

## O=C(Cn1nnc2ccccc21)N(Cc1cccc(Cl)c1)c1ccc(-c2cnc[nH]2)cc1 [CCF0058981]
SARS-CoV-2 [1]
  EC50: ~500 nM

## CNC(=O)c1cc(Br)cc(C#N)c1N[C@@H]1CCCC[C@@H]1NC(=O)c1cncc2ccccc12 [WU-08]
SARS-CoV-2 3CLpro
  IC50: 467 ± 64 nM

## CNC(=O)c1cc(Br)cc([N+](=O)[O-])c1NC(C(C)C)C1CN(C(=O)c2cncc3cc(O)ccc23)C1 (stereo not shown) [WU-05]
SARS-CoV-2 3CLpro
  IC50: 122 ± 16 nM

## CNC(=O)c1cc(Br)cc([N+](=O)[O-])c1N1CC[C@@]2(CN(C(=O)c3cncc4cc(O)ccc34)C[C@@H]2c2ccccc2)C1 [WU-02]
SARS-CoV-2 3CLpro
  IC50: 71 nM
In vitro
  CC50: > 20000 nM
[2]
  EC50: 54 nM
  EC90: 305 nM
[3]
  EC50: 80 nM
  EC90: 201 ± 57 nM

## CC(C)(C)[C@H](NC(=O)C(F)(F)F)C(=O)N1C[C@H]2[C@@H]([C@H]1C(=O)N[C@H](C#N)C[C@@H]1CCNC1=O)C2(C)C [PF-07321332, Nirmatrelvir]
SARS-CoV-2 [4]
  average body weight change: did not change
[5]
  EC50: 117 nM

## CNC(=O)c1cc(Br)cc([N+](=O)[O-])c1N[C@@H]1CCCC[C@@H]1NC(=O)c1cncc2cccc(O)c12 [WU-10]
SARS-CoV-2 3CLpro
  IC50: 135 ± 8 nM

## CNC(=O)c1cc(Br)ccc1N[C@@H]1CCCC[C@@H]1NC(=O)c1cncc2ccccc12 [WU-06]
SARS-CoV-2 3CLpro
  inhibitory activity against SARS-CoV-2 3CLpro: abolished the activity
SARS-CoV 3CLpro
  inhibition of SARS-CoV 3CLpro enzyme activity: showed no activity

## CCC(CCNc1c(C(=O)NC)cc(Br)cc1[N+](=O)[O-])NC(=O)c1cncc2cccc(O)c12 (stereo not shown) [WU-01]
SARS-CoV-2 3CLpro
  IC50: 648 ± 68 nM

## O=C(O)c1cc(Br)cc([N+](=O)[O-])c1N[C@@H]1CCCC[C@@H]1NC(=O)c1cncc2ccccc12 [WU-12]
SARS-CoV-2 3CLpro
  IC50: 6110 ± 2630 nM

## COC(=O)c1cc(Br)cc([N+](=O)[O-])c1N[C@@H]1CCCC[C@@H]1NC(=O)c1cncc2ccccc12 [WU-11]
SARS-CoV-2 3CLpro
  IC50: 849 ± 161 nM
